The record followed here is patent US20120065228A1, “COMPOSITIONS AND METHODS FOR TREATING, CONTROLLING, REDUCING, OR AMELIORATING OCULAR INFLAMMATORY WITH LOWER RISK OF INCREASED INTRAOCULAR PRESSURE” (priority 2007, published 2012).

Series [1] concerns rabbit eye. Briefly: Clinical evaluation by slit lamp (clinical score), rabbit paracentesis model. Format: in vivo. More on the design: key to Clinical Score −180 min / Clinical Score −5 min / Clinical Score +115 min: 0: normal; 1: discrete dilatation of iris and conjunctival vessels; 2: moderate dilatation of iris and conjunctival vessels; 3: intense iridal hyperemia with flare in the anterior chamber; 4: intense iridal hyperemia with flare in the anterior chamber and presence of fibrinous exudates. To be noted: 0.1% topical formulation.

Series [2] deals with intraocular pressure (IOP) in New Zealand White rabbits. Briefly: Intraocular pressure in New Zealand White rabbits, topical dosing four times daily. Format: in vivo. The protocol:
On Days 1-31, animals received daily topical doses of the appropriate test article into the right eye. Animals were dosed four times per day, with doses administered 2 hours apart. Doses were administered using a calibrated 50-μL pipette. The eyelids were held close for 10 seconds immediately following dosing. The time of each dose administration was recorded.
Intraocular pressure (“IOP”) was determined for both eyes of each animal on Days 3, 5, 10, 12, 16, 18, 22, 24, 26, 30, and 32. LOP was evaluated with a Medtronic Solan, Model 30 classic pneumatonometer. Proparacaine hydrochloride 0.5% (1 drop) was delivered to each eye prior to IOP measurement. IOP was measured on Monday, Wednesday, and Friday of each week. A two-point diurnal curve was established: IOP was recorded at 8 a.m. and 12 p.m. on Day 3, and at 8 a.m. and 2 p.m. on later days, with a ±1 hour range for each of these times. The time of the measurements was recorded.
Descriptive statistics were prepared for IOP data of each treatment group (left and right eyes separately) at each measurement interval. The statistics included the number of observations (“N”), mean, standard deviation (“STD”), and standard error (“SEM”). Statistical analyses were conducted on IOP results using Statistical Analysis Systems (SAS Institute, Inc., Cary, N.C., V8.0). Parameters were evaluated using analysis of variance/GLM Procedure followed by Tukey's Standardized Range Test (Tukey, 1985) for post hoc comparisons of group means. The level of significance was set at a probability of p<0.05 for all statistical procedures. Group IOP means were compared at each interval, with left and right eyes compared separately.
IOP data for the following six animals were excluded from group statistics: Group A, Nos. 3081, 3037, 3068, and 3011; Group C, No. 3034; and Group E, No. 3084.

Values joined by “and” are separate entries in the source; they are usually repeats but may differ in a detail not shown here. Identical values can stand only once.

Take `C[C@@H]1C[C@H]2[C@@H]3CCC4=CC(=O)C=C[C@]4(C)[C@@]3(F)[C@@H](O)C[C@]2(C)[C@@]1(O)C(=O)CO` [dexamethasone, reference compound]: the “Clinical Score −5 min” value in series [1] (5 min before the first paracentesis, individual eyes, listed as Dex) is 0 (6×) and 1 (2×). Further, the “Clinical Score +115 min” value in series [1] (5 min before the second paracentesis, individual eyes, listed as Dex) was 1 (6×) and 3 (2×). For the same compound, in series [1] (+115 min, 8 eyes), the “Clinical score as percentage of eyes, Score (%) 1” value stood at 75% and the “Clinical score as percentage of eyes, Score (%) 3” value was determined as 25%. The “Clinical Score −180 min” value in series [1] (basal, individual eyes) came to 0. Besides, in series [1] (−5 min, 8 eyes), the “Clinical score as percentage of eyes, Score (%) 0” value is 75% and the “Clinical score as percentage of eyes, Score (%) 1” value is recorded as 25%. In series [1] (−180 min (basal), 8 eyes), the “Clinical score as percentage of eyes, Score (%) 0” value came to 100%. For the same compound, in series [2] (0.1% dexamethasone suspension, on several days, p<0.05), the “Mean IOP versus corresponding eyes of other groups” value was “significantly higher”. For the same compound, the “Mean IOP after treatment began” value in series [2] (rabbits, right eye four times daily up to 31 days, dexamethasone 0.1%, BOL-303242-X 1, 5, 10 mg/g, left and right eyes) is reported as “increased sharply”.
